Like-named read-outs stand apart in the source and are kept apart here.
Key:
wild-type C. elegans [1] = assay: Population chemotaxis assay for volatile substances, wild-type worms; assay type: in vivo
Method: FIG. 3A: Chemotaxis assays on adult C. elegans to volatile compounds. […] One microliter of odorant and one microliter 1 M sodium azide were added at zone 1, and one microliter of control solvent and one microliter 1 M sodium azide were added at zone 6.
(§1) (Bargmann, C. I., Hartwieg, E., and Horvitz, H. R. (1993) Cell 74, 515-527). One microliter of odorant and one microliter 1 M sodium azide were added at one end of the dish (zone 1), and one microliter of solvent (ethanol) and one microliter 1 M sodium azide were added at the opposite end (zone 6) as a control. Sodium azide was included to anaesthetize animals entering zones 1 and 6.
(§2) Where reported, worms were exposed to a 1:100 dilution of diacetyl, undiluted benzaldehyde, undiluted octanal and 1:5, 1:10, 1:15, 1:25, 1:50, 1:100, and 1:1000 dilutions of octanal (Sigma Chemical Co., St. Louis, Mo.). Population assay data for N2 and transgenic worm lines were compared using the two-tailed t test.

rat I7 OR [2] = biological target: T1, rat I7 OR (Rattus norvegicus, UniProt P23270); assay: Population chemotaxis assay for volatile substances, Odr-10::I7 transgenic worms (I7 expressed in AWA neurons); assay type: in vivo, C. elegans; parameters: expressed in transfected cells; host or cells: transgenic C. elegans; AWB neurons (str-1 promoter) or AWA neurons (odr-10 promoter)
T1 sequence (P23270 1-327): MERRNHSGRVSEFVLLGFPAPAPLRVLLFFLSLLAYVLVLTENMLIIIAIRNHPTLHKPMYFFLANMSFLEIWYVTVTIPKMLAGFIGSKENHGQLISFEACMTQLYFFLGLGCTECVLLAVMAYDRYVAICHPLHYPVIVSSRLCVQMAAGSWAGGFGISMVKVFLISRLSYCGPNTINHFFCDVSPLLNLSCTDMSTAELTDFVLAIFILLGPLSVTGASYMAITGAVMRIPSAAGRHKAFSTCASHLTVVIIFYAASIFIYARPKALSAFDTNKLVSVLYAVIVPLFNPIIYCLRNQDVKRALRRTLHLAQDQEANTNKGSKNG
Method: as §1, §2
AWA neurons mediate chemotaxis to volatile attractants in C. elegans. […] It was expected that the activation of I7 with undiluted octanal in these transgenic worms would counteract the volatile avoidance to undiluted octanal observed in wild-type worms. Chemotaxis assays were performed with four independently derived C. elegans transgenic strains expressing I7 (FIG. 6). […] While most of the wildtype C. elegans were repelled toward zone 6, a significant number of odr-10::I7 transgenic worms was found in the proximity to the odorant source (FIGS. 6B and 3A). In order to investigate the specificity of the decrease in the aversive response of Odr10::I7 transgenic worms to undiluted octanal and to confirm that this decrease was due to the interaction of octanal with I7, chemotaxis assays with Odr-10::I7 transgenic worms were performed in which diacetyl and benzaldehyde were used.

rat I7 OR [3] = biological target: T1, rat I7 OR; conditions: from the literature (Zhao 1998; Araneda 2000); cited from earlier work
rat I7 OR [4] = biological target: T1, rat I7 OR; assay: Population chemotaxis assay for volatile substances, Str-1::I7 transgenic worms (I7 expressed in AWB neurons); assay type: in vivo, C. elegans; parameters: expressed in transfected cells; host or cells: transgenic C. elegans; AWB neurons (str-1 promoter) or AWA neurons (odr-10 promoter)
Method: as §1, §2
To investigate the possibility to functionally express mammalian ORs in C. elegans, wild-type nematodes were first characterized for their ability to detect and respond to increasing dilutions of volatile chemicals and particularly to octanal, an agonist for the rat I7 OR (FIG. 4B; Zhao, H., Ivic, L., Otaki J. M., Hashimoto, M., Mikoshiba, K., and Firestein, S. (1998) Science 279, […]; Araneda, R. C., Kini, A. D., and Firestein, S. (2000) Nature Neurosci. 12, 1248-1255). […] Higher dilutions of octanal gave chemotaxis indexes close to 0 indicating a neutral response of the wild-type worms to lower concentrations of the odorant. […] As AWB neurons mediate volatile avoidance in C. elegans, it was expected that the expression of the rat I7 OR in AWB neurons and its activation with a 1:10 dilution of octanal would counteract the olfactory attraction to 1:10 octanal observed in wild-type worms. I7 transgenic worms were generated, in which I7 expression was driven by the str-1 promoter, a controlling element exclusively functional in the two AWB neurons (Troemel, E. R., Kimmel, B. E., and Bargmann, C. I. (1997) Cell 91, 161-169). Five independently derived C. elegans transgenic strains expressing I7 were tested (FIG. 5). […]

wild-type C. elegans [5] = conditions: known from the literature, cited from earlier work
[6] = specificity controls: diacetyl and benzaldehyde, Odr-10::I7 transgenic worms
[7] = specificity controls: 1:100 dilution of diacetyl, pure benzaldehyde, Str-1::I7 transgenic worms

| change of chemotaxis index in relation to control wild-type worms (rat I7 OR [2]; undiluted octanal, four Odr-10::I7 transgenic worm strains, statistically significant) | change of chemotaxis index in relation to control wild-type worms (rat I7 OR [4]; 1:10 octanal, five Str-1::I7 transgenic worm strains, statistically significant) | SMILES | chemotaxis index (wild-type C. elegans [1]; 1:10 dilution of octanal, wild-type worms, scored after 1 hour) | chemotaxis index (wild-type C. elegans [1]; higher dilutions of octanal than 1:10, wild-type worms, neutral response) | chemotaxis index (wild-type C. elegans [1]; undiluted octanal, 1 microliter, wild-type worms, scored after 1 hour, +1.0 total attraction, −1.0 total repulsion) | activity at the I7 receptor (rat I7 OR [3]) | behavioral response of wild-type C. elegans (wild-type C. elegans [5]; pure benzaldehyde) | change of chemotaxis index in relation to control wild-type worms (rat I7 OR [2]; [6]) | change of chemotaxis index in relation to control wild-type worms (rat I7 OR [4]; [7]) | behavioral response of wild-type C. elegans (wild-type C. elegans [5]; 1:100 dilution of diacetyl) |
| --- | --- | --- | --- | --- | --- | --- | --- | --- | --- | --- |
| increased dramatically | decreased dramatically | CCCCCCCC=O [octanal] | +0.5 | ~0 | −0.6 | agonist |  |  |  |  |
|  |  | O=Cc1ccccc1 [benzaldehyde] |  |  |  | do not activate | induce aversion | did not change | did not change |  |
|  |  | CC(=O)C(C)=O [diacetyl] |  |  |  |  |  | did not change | did not change | induce attraction |

From patent publication US20040073961A1, “Nematode screening assay” (priority 2002, published 2004)
